Laboratory results published in paper PMC6694155, “PTPσ inhibitors promote hematopoietic stem cell regeneration” (Nature Communications, 2019).
Several values for one entry are separate records, joined by “and”; a condition that tells them apart may be missing. Equal values may be shown once. Entries after “also recorded” stand apart in the source; their conditions may differ.

Molecular target: T1, PTPσ (Mus musculus, UniProt B0V2N1)
T1 sequence (B0V2N1 1326-1907): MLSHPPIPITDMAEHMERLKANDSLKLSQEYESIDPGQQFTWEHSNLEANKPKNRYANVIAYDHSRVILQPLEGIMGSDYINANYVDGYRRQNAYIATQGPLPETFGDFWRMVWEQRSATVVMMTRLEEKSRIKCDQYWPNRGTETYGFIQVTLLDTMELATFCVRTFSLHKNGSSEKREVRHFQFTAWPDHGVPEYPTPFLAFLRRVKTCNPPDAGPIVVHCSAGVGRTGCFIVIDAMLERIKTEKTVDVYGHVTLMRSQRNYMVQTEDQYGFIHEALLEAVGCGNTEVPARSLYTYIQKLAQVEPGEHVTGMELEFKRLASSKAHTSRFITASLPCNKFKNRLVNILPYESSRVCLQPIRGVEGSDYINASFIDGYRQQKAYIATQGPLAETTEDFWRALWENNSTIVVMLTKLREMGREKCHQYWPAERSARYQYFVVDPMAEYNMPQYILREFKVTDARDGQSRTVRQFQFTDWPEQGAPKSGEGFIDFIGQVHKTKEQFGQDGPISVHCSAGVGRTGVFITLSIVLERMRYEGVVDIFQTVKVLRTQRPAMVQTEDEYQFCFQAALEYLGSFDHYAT
Assay: PTPσ enzymatic assay (modified Malachite Green / Tyrosine Phosphatase Assay Kit)
Assay type: biochemical
Conditions: for PTPσ inhibitory activity (in words): direct PTPσ enzymatic assay; for Supplementary Figure 5b: PTPσ enzymatic assay signal: replicates
Procedure: The two intracellular catalytic domains (D1 and D2) of Ptprs were cloned into a pET28a vector, overexpressed in Escherichia coli BL21 and purified. Enzymatic activity of PTPσ was assayed using a modified version of the Malachite Green Assay[66] and the Tyrosine Phosphatase Assay Kit (Promega Corporation). Unless stated otherwise, standard assays were carried out using 50 nM PTPσ protein in 1× Buffer (10 mM Tris, 5 mM MgCl2, 10 mM NaCl, 0.02% Tween) and Tyr Phosphopeptide as substrate (200 μM for Fig. 1b, c, 50–1200 μM in Fig. 1c). Purified catalytic domain 1 and domain 2 of PTPσ were pre-incubated with test compounds 3071, 5205, 5075, or control for 15 min in a 96-well plate before the addition of Tyr Phosphopeptide (DADE(pY)LIPQQG). For IC50 determination, rates normalized relative to uninhibited controls (dimethyl sulfoxide (DMSO)) were plotted against compound concentration and fitted using a four-parameter nonlinear regression curve fit ((y = [(A − D) (1 + {xC − 1}B) − 1] + D) (Prism 6.0, Graphpad Software). For mechanism studies and determination of the enyzme’s Km and Vmax, data were analyzed using a nonlinear regression fit according to the classical Michaelis–Menten kinetics model, Y = Vmax*X/(Km + X) (Prism 6.0, Graphpad Software).

Row | SMILES | PTPσ inhibitory activity (in words) | PTPσ inhibitory activity (in words) (listed as 5483071) | Supplementary Figure 5b: PTPσ enzymatic assay signal (inhibitor 0.0122 uM) | Supplementary Figure 5b: PTPσ enzymatic assay signal (inhibitor 0.049 uM) | Supplementary Figure 5b: PTPσ enzymatic assay signal (inhibitor 0.09 uM) | Supplementary Figure 5b: PTPσ enzymatic assay signal (inhibitor 0.19 uM) | Supplementary Figure 5b: PTPσ enzymatic assay signal (inhibitor 0.39 uM) | Supplementary Figure 5b: PTPσ enzymatic assay signal (inhibitor 0.78 uM) | Supplementary Figure 5b: PTPσ enzymatic assay signal (inhibitor 1.56 uM) | Supplementary Figure 5b: PTPσ enzymatic assay signal (inhibitor 3.125 uM) | Supplementary Figure 5b: PTPσ enzymatic assay signal (inhibitor 6.25 uM)
1 | O=C(/C=C\Nc1cccc([N+](=O)[O-])c1)c1ccccc1 [DJ001, (Z)-3-((3-nitrophenyl)amino)-1-phenylprop-2-en-1-one] | confirmed the inhibitory effect | strong inhibitory activity | – | – | – | – | – | – | – | – | –
2 | O=C(/C=C\Nc1cc(F)cc(F)c1)c1ccccc1 [DJ009, (Z)-3-((3,5-difluorophenyl)amino)-1-phenylprop-2-en-1-one] | strongly inhibited PTPσ activity; also recorded: strong PTPσ inhibitory | – | 0.21 and 0.203 (2×) | 0.201 and 0.209 and 0.211 | 0.199 and 0.194 and 0.195 | 0.178 and 0.174 and 0.176 | 0.161 and 0.165 and 0.164 | 0.162 and 0.166 and 0.165 | 0.16 and 0.163 and 0.158 | 0.154 and 0.159 and 0.16 | 0.157 and 0.162 and 0.156
